Tests used:
DU4475 = assay: In vitro cell viability assay (CellTiter-Glo, ATP levels), triple negative breast cancer cells; format: cell-based; conditions: Homo sapiens, DU-4475, 168 h, 7-day incubation, CellTiter-Glo, average values; read-out: DU4475 IC50
Method: (§1) In Vitro Cell Viability Assay
(§2) The present disclosure provides a method for inhibiting cell viability, as measured by ATP levels. The method for inhibiting cell viability is drawn to contacting various cancer cells with the compounds described herein at various concentrations. The cancer cell lines were maintained in culture conditions at 37° C. in an atmosphere of 5% CO2 in air. The cells growing in an exponential growth phase were harvested and counted for plating. Compounds were incubated in two cancer cell types representing multiple myeloma (MOLP-8) and triple negative breast cancer (DU4475). Cells were plated at an optimized cell numbers per well in 96-well plates and allowed to attach to the plates overnight at approximately 80% confluency.
(§3) After addition of compounds, plates were incubated for 7-day. At the end of incubation period on day 8, media was removed and replaced with a solution of CellTiter-Glo™ reagent (Promega®) according to protocol. Luminescence was read using an EnVision® multi-label plate reader (Perkin-Elmer®), and signal intensity was calculated relative to positive and negative control wells. Cisplatin was included as the positive control. A dose-response calculation was performed in a non-linear regression fit and by using the Hill equation to calculate a concentration-response curve and 50% inhibitory concentration (IC50) values for each compound.
(§4) The average IC50 values of compounds 1-15 in multiple myeloma (MOLP-8) and triple negative breast cancer (DU4475) cells are shown in Table 1.

MOLP-8 = assay: In vitro cell viability assay (CellTiter-Glo, ATP levels), multiple myeloma cells; format: cell-based; conditions: Homo sapiens, MOLP-8, 168 h, 7-day incubation, CellTiter-Glo, average values; read-out: MOLP-8 IC50
Method: as §1, §2, §3, §4

[1] = system: HCT116 (colorectal cancer) cells; assay: Resazurin-based cell viability assay using colorectal cancer cells; conditions: Homo sapiens, HCT-116, 72 hr incubation
Method: Determination of Potency of Compounds in Cell Viability Assay Using Colorectal Cancer Cells
The blue dye resazurin-based assay was performed to determine cell viability and used according to manufacture protocol (Sigma®). HCT116 (colorectal cancer) cells were seeded in the DMEM medium (10% FBS serum). Approximately 1,500 cells were plated per well in 96 well plates. Cells were allowed to grow at 37° C. for 24 hr in 5% CO2 environment in a humidified incubator. Serially diluted compounds (100 μL) were added to the culture plate after 24 hr. After addition of compounds, plates were incubated for 72 hr. Experiment was terminated at the designated incubation time by replacing the medium with 100 μL of 1 mM of resazurin (Sigma®) prepared in culture medium (DMEM) and were further incubated in culture conditions for 4-6 hours. Fluorescence was recorded using a multimodal plate reader (Biotek Synergy Neo®) at an excitation wavelength of 535 nm and emission wavelength of 590 nm to obtain relative fluorescence units. Data analysis was done by subtracting the background fluorescence (medium blank) value from each reading and then normalizing with the vehicle control (DMSO treated cells) to obtain percent survival/proliferation. IC50 was calculated from percent survival values using GraphPad Prism® (see Table 1).

| SMILES | IC50 (DU4475) | IC50 (MOLP-8) | IC50 [1] |
| --- | --- | --- | --- |
| O=C1C=CCCCN1C(=O)/C=C/c1cnccn1 [Compound 6, (E)-1-(3-(pyrazin-2-yl)acryloyl)-1,5,6,7-tetrahydro-2H-azepin-2-one] | 0.56 µM | 0.44 µM | 2.4 µM |
| CC(C)(C)CN1CCC(/C=C/C(=O)N2CCC=CC2=O)CC1 [Compound 62, (E)-1-(3-(1-neopentylpiperidin-4-yl)acryloyl)-5,6-dihydropyridin-2(1H)-one] | 0.58 µM | 0.31 µM | 1.73 µM |
| Cc1noc(/C=C/C(=O)N2CCCC=CC2=O)n1 [Compound 17, (E)-1-(3-(3-methyl-1,2,4-oxadiazol-5-yl)acryloyl)-1,5,6,7-tetrahydro-2H-azepin-2-one] | 1.16 µM | 0.33 µM | 5.93 µM |
| O=C1C=CCCN1C(=O)/C=C/C1CCN(S(=O)(=O)c2ccccc2)CC1 [Compound 57, (E)-1-(3-(1-(phenylsulfonyl)piperidin-4-yl)acryloyl)-5,6-dihydropyridin-2(1H)-one] | 0.53 µM | 0.68 µM | 1.36 µM |
| O=C1C=CCCCN1C(=O)/C=C/C1CCNCC1 [Compound 38, (E)-1-(3-(piperidin-4-yl)acryloyl)-6,7-dihydro-1H-azepin-2(5H)-one] | 1.03 µM | 0.23 µM | 0.92 µM |
| O=C1C=CCCN1S(=O)(=O)/C=C/c1ncccn1 [Compound 66, 1-{[(E)-2-(pyrimidin-2-yl)ethenyl]sulfonyl}-5,6-dihydropyridin-2(1H)-one] | 0.95 µM | 0.21 µM | 3.11 µM |
| O=C1C=CCCCN1C(=O)/C=C/c1cnc2ccccc2c1 [Compound 3, (E)-1-(3-(quinolin-3-yl)acryloyl)-1,5,6,7-tetrahydro-2H-azepin-2-one] | 0.76 µM | 0.36 µM | 1.7 µM |
| Cn1cc(/C=C/C(=O)N2CCC=CC2=O)cn1 [Compound 56, (E)-1-(3-(1-methyl-1H-pyrazol-4-yl)acryloyl)-5,6-dihydropyridin-2(1H)-one] | 1.38 µM | 0.6 µM | 3.6 µM |
| O=C1C=CCCN1C(=O)/C=C/C1CCN(c2ccccn2)CC1 [Compound 74, (E)-1-(3-(1-(pyridin-2-yl)piperidin-4-yl)acryloyl)-5,6-dihydropyridin-2(1H)-one] | 1 µM | 0.66 µM | 2.58 µM |
| Cn1ccc(/C=C/C(=O)N2CCC=CC2=O)n1 [Compound 53, 1-[(2E)-3-(1-methyl-1H-pyrazol-3-yl)prop-2-enoyl]-5,6-dihydropyridin-2(1H)-one] | 0.73 µM | 0.56 µM | 2.12 µM |
| NC(=O)N1CCC(/C=C/C(=O)N2CCC=CC2=O)CC1 [Compound 68, (E)-4-(3-oxo-3-(6-oxo-3,6-dihydropyridin-1(2H)-yl)prop-1-en-1-yl)piperidine-1-carboxamide] | 1.55 µM | 0.67 µM | 7.38 µM |
| O=C(/C=C/c1ncccn1)N1CCC=C(Br)C1=O [Compound 40, 3-bromo-1-[(2E)-3-(pyrimidin-2-yl)prop-2-enoyl]-5,6-dihydropyridin-2(1H)-one] | 0.1 µM | 0.04 µM | 0.36 µM |
| O=C1C=CCCN1C(=O)/C=C/C1CCNCC1 [Compound 20, (E)-1-(3-(piperidin-4-yl)acryloyl)-5,6-dihydropyridin-2(1H)-one] | 1.32 µM | 0.69 µM | 2.13 µM |
| CC(C)(C)OC(=O)N1CCC(/C=C(\C(=O)N2CCC=CC2=O)c2ccccc2)CC1 [Compound 92, (Z)-tert-butyl 4-(3-oxo-3-(2-oxo-5,6-dihydropyridin-1(2H)-yl)-2-phenylprop-1-enyl)piperidine-1-carboxylate] | 4.75 µM | 4.32 µM | 9.72 µM |
| COc1cc(/C=C/S(=O)(=O)N2CCC=CC2=O)cc2c1OCCO2 [Compound 76, 1-{[(E)-2-(8-methoxy-2,3-dihydro-1,4-benzodioxin-6-yl)ethenyl]sulfonyl}-5,6-dihydropyridin-2(1H)-one] | 1 µM | 0.563 µM | 1.85 µM |
| O=C1C=CCCN1C(=O)/C=C/c1cccnn1 [Compound 27, (E)-1-(3-(pyridazin-3-yl)acryloyl)-5,6-dihydropyridin-2(1H)-one] | 0.95 µM | 0.76 µM | 1.9 µM |
| COc1cc(/C=C/C(=O)N2CC(O)C=CC2=O)cc2c1OCCO2 (stereo not drawn) [Compound 25, 5-hydroxy-1-[(2E)-3-(8-methoxy-2,3-dihydro-1,4-benzodioxin-6-yl)prop-2-enoyl]-5,6-dihydropyridin-2(1H)-one] | 1.77 µM | 0.37 µM | 4.61 µM |
| CC(C)(C)OC(=O)N1CCC(/C=C/C(=O)N2CCC=CC2=O)CC1 [Compound 19, tert-butyl (E)-4-(3-oxo-3-(6-oxo-3,6-dihydropyridin-1(2H)-yl)prop-1-en-1-yl)piperidine-1-carboxylate] | 0.82 µM | 0.41 µM | 1.97 µM |
| C/C(=C\c1cnn(C)c1)C(=O)N1CCC=CC1=O [Compound 69, 1-[(2E)-2-methyl-3-(1-methyl-1H-pyrazol-4-yl)prop-2-enoyl]-5,6-dihydropyridin-2(1H)-one] | 4.01 µM | 1.98 µM | 14 µM |
| O=C(Nc1ccc(F)cc1)N1CCC(/C=C/C(=O)N2CCC=CC2=O)CC1 [Compound 58, N-(4-fluorophenyl)-4-[(1E)-3-oxo-3-(6-oxo-3,6-dihydropyridin-1(2H)-yl)prop-1-en-1-yl]piperidine-1-carboxamide] | 0.44 µM | 0.38 µM | 1.1 µM |
| O=C1C=CCCN1C(=O)/C=C/C1CC1 [Compound 18, (E)-1-(3-cyclopropylacryloyl)-5,6-dihydropyridin-2(1H)-one] | 2.05 µM | 0.68 µM | 14.2 µM |
| CC1(C)C=CC(=O)N(C(=O)/C=C/C2CCN(C(=O)Nc3ccc(F)cc3)CC2)C1 [Compound 70, (E)-4-(3-(3,3-dimethyl-6-oxo-3,6-dihydropyridin-1(2H)-yl)-3-oxoprop-1-en-1-yl)-N-(4-fluorophenyl)piperidine-1-carboxamide] | 1.75 µM | 1.35 µM | 7.06 µM |
| CC1(/C=C/C(=O)N2CCC=CC2=O)CCCCC1 [Compound 22, (E)-1-(3-(1-methylcyclohexyl)acryloyl)-5,6-dihydropyridin-2(1H)-one] | 1.84 µM | 2.21 µM | 3.85 µM |
| O=C1C=CCCN1C(=O)/C=C/C1CCOCC1 [Compound 34, 1-[(2E)-3-(tetrahydro-2H-pyran-4-yl)prop-2-enoyl]-5,6-dihydropyridin-2(1H)-one] | 1.43 µM | 0.51 µM | 3.8 µM |
| O=C1C=CCCN1C(=O)/C=C/C1CCN(CC2CC2)CC1 [Compound 44, (E)-1-(3-(1-(cyclopropylmethyl)piperidin-4-yl)acryloyl)-5,6-dihydropyridin-2(1H)-one] | 1.05 µM | 0.49 µM | 1.35 µM |
| O=C1C=CCCN1C(=O)/C=C/c1ncc2c(n1)OCCO2 [Compound 80, (E)-1-(3-(6,7-dihydro-[1,4]dioxino[2,3-d]pyrimidin-2-yl)acryloyl)-5,6-dihydropyridin-2(1H)-one] | 1.8 µM | 1.15 µM | 3.21 µM |
| O=C1C=CC(F)CN1C(=O)/C=C/c1ncccn1 (stereo not drawn) [Compound 37, (E)-5-fluoro-1-(3-(pyrimidin-2-yl)acryloyl)-5,6-dihydropyridin-2(1H)-one] | 0.42 µM | 0.11 µM | 0.87 µM |
| C/C(=C\C1CCN(C(=O)Nc2ccc(F)cc2)CC1)C(=O)N1CCC=CC1=O [Compound 73, (E)-N-(4-fluorophenyl)-4-(2-methyl-3-oxo-3-(6-oxo-3,6-dihydropyridin-1(2H)-yl)prop-1-en-1-yl)piperidine-1-carboxamide] | 1.62 µM | 0.95 µM | 4.28 µM |
| O=C1C=CCCCN1S(=O)(=O)/C=C/c1ccccc1 [Compound 14, (E)-1-(styrylsulfonyl)-1,5,6,7-tetrahydro-2H-azepin-2-one] | 3.04 µM | 3.51 µM | 7 µM |
| O=C1C=CCCN1C(=O)/C=C/c1cn[nH]c1 [Compound 89, (E)-1-(3-(1H-pyrazol-4-yl)acryloyl)-5,6-dihydropyridin-2(1H)-one] | 8.41 µM | 3.58 µM | 2.7 µM |

Reference: patent US11485725B2, “Derivatives of piperlongumine and uses thereof” (Auransa Inc., priority 2017, dated 2022)
